# Results reported in ChEMBL document CHEMBL1146172, “Identification of novel, orally bioavailable spirohydantoin CGRP receptor antagonists” (Bioorg Med Chem Lett, 2006).
# Assays:
# [1] = target: Calcitonin gene-related peptide type 1 receptor (Homo sapiens, UniProt O60894+Q16602); test: Displacement of [125I]hCGRP from human cloned CGRP receptor expressed in HEK293 cells; format: cell-based
# [2] = Clearance in rat at 2 mpk, iv; settings: in vivo, 2 mg/kg
# [3] = Half life in rat at 2 mpk, iv; format: ADME, organism-based; settings: in vivo, 2 mg/kg
# [4] = system: Rattus norvegicus; test: Volume of distribution in rat at 2 mpk, iv; settings: in vivo, 2 mg/kg
# [5] = Bioavailability in rat at 10 mg/kg, po; format: ADME, organism-based; settings: in vivo
# [6] = target: Calcitonin gene-related peptide type 1 receptor (Homo sapiens, UniProt Q16602); test: Inhibition of CGRP-induced cAMP production in E10 cells; format: functional, cell-based, Mus musculus
# [7] = system: Rhesus monkey; test: Volume of distribution in rhesus at 0.5 mpk, iv; settings: Macaca mulatta, in vivo, 0.5 mg/kg
# [8] = target: Cytochrome P450 3A4 (Homo sapiens, UniProt P08684); test: Inhibition of CYP3A4; format: ADME
# [9] = target: Cytochrome P450 2C9 (Homo sapiens, UniProt P11712); test: Inhibition of CYP2C9; format: ADME
# [10] = Clearance in dog at 0.5 mpk, iv; settings: in vivo, 0.5 mg/kg
# [11] = Solubility at pH 7.4; format: physicochemical; settings: buffer
# [12] = target: Cytochrome P450 2D6 (Homo sapiens, UniProt P10635); test: Inhibition of CYP2D6; format: ADME
# [13] = Bioavailability in dog at 2 mg/kg, po; format: ADME, organism-based, Canis lupus familiaris; settings: in vivo
# [14] = Half life in rhesus at 0.5 mpk, iv; format: ADME, organism-based, Macaca mulatta; settings: rhesus monkey, in vivo, 0.5 mg/kg
# [15] = Bioavailability in rhesus at 2 mg/kg, po; format: ADME, organism-based, Macaca mulatta; settings: rhesus monkey, in vivo
# [16] = system: Canis familiaris; test: Volume of distribution in dog at 0.5 mpk, iv; settings: in vivo, 0.5 mg/kg
# [17] = Half life in dog at 0.5 mg/kg, iv; format: ADME, organism-based, Canis lupus familiaris; parameters: dose 0.5 mg/kg, route intravenous; settings: in vivo
# [18] = Clearance in rhesus at 0.5 mpk, iv; settings: Macaca mulatta, rhesus monkey, in vivo, 0.5 mg/kg
# Sequence of Calcitonin gene-related peptide type 1 receptor (Homo sapiens, UniProt O60894+Q16602) (Q16602 whole entry, one chain of several): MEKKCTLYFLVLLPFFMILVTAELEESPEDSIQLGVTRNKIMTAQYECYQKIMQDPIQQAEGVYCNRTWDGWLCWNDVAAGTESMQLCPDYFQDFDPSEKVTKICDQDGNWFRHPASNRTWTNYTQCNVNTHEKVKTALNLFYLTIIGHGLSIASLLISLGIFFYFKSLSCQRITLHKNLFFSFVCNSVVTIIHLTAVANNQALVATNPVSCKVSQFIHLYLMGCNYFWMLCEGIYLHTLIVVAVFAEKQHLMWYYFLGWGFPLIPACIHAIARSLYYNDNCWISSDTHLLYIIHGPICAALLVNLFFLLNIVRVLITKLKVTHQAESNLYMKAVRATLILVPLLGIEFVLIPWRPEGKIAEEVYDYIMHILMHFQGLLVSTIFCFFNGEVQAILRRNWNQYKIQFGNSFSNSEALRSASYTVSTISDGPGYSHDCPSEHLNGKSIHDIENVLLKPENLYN
# Sequence of Calcitonin gene-related peptide type 1 receptor (Homo sapiens, UniProt Q16602) (Q16602 whole entry): as the sequence (Q16602 whole entry, one chain of several) above
# Sequence of Cytochrome P450 3A4 (P08684 whole entry): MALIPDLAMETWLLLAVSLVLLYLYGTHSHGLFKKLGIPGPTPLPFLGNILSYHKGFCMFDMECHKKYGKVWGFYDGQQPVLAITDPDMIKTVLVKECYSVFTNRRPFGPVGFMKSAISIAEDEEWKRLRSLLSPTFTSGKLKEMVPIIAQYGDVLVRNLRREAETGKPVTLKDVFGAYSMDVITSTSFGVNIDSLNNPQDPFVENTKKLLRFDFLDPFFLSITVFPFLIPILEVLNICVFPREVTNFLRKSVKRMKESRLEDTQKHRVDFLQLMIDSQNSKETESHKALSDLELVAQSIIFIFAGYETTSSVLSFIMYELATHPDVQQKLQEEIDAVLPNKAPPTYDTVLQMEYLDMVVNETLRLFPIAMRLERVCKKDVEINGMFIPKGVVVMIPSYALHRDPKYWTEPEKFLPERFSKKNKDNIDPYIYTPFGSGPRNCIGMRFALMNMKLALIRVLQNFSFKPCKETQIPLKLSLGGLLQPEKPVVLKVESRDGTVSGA
# Sequence of Cytochrome P450 2C9 (P11712 whole entry): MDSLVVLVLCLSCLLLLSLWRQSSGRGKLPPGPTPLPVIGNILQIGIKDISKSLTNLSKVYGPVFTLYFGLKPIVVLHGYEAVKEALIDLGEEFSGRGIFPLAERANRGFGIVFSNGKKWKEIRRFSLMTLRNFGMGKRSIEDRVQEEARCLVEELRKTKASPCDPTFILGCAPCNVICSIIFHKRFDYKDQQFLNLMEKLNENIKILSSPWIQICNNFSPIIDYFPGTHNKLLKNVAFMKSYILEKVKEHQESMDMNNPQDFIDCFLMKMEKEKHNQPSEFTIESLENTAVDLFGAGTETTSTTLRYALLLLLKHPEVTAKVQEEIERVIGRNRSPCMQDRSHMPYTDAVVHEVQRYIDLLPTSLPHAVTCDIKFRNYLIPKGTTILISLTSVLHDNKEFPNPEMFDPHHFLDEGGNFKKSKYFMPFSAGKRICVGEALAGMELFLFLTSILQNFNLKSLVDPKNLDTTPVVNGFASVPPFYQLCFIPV
# Sequence of Cytochrome P450 2D6 (P10635 whole entry): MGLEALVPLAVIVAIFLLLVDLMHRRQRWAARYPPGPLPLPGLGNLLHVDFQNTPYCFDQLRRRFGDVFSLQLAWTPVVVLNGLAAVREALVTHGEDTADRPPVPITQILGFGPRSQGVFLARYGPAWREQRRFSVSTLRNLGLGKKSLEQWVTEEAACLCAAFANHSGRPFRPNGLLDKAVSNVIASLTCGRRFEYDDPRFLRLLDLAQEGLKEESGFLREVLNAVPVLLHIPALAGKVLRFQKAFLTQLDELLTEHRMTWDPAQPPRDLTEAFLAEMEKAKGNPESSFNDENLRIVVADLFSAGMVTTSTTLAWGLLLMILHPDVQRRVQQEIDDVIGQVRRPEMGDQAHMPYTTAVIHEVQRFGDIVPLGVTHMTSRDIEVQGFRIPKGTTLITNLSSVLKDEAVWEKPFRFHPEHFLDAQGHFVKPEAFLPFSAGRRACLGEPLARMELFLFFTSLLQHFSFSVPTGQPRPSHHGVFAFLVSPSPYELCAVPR
SMILES,Ki [1] [µM],clearance [2] [mL/min/kg],half-life [3] [h],Vdss [4] [L/kg],bioavailability [5] [%],IC50 [6] [µM],other results
CN1C(=O)NC(=O)[C@]12Cc1ccc(NC(=O)Cn3c(=O)n(-c4cnccn4)c4ccccc43)cc1C2,0.012,11,1.1,0.64,1,0.064,–
O=C(Cn1c(=O)[nH]c2ccccc21)Nc1ccc2c(c1)CC1(C2)NC(=O)NC1=O (centres undefined),0.28,–,–,–,–,0.69,–
CN1C(=O)NC(=O)[C@]12Cc1ccc(NC(=O)Cn3c(=O)n(-c4ccccn4)c4ccccc43)cc1C2,–,3.4,1.6,0.47,36,–,Vdss [7]: 0.31 L/kg; IC50 [8]: > 10 µM; IC50 [9]: > 10 µM; clearance [10]: 1.7 mL/min/kg; solubility [11]: < 1 µg/mL; IC50 [12]: > 10 µM; bioavailability [13]: 83%; half-life [14]: 9.6 h; bioavailability [15]: 29%; Vdss [16]: 0.69 L/kg; half-life [17]: 4.8 h; clearance [18]: 0.85 mL/min/kg
CN1C(=O)NC(=O)[C@]12Cc1ccc(NC(=O)Cn3c(=O)oc4ccccc43)cc1C2,0.048,–,–,–,–,0.35,–
CN1C(=O)NC(=O)[C@]12Cc1ccc(NC(=O)Cn3c(=O)n(C4CCS(=O)(=O)C4)c4ccccc43)cc1C2 (some centres undefined),0.017,31,1.1,0.8,0,0.064,solubility [11]: > 100 µg/mL
CN1C(=O)NC(=O)[C@]12Cc1ccc(NC(=O)Cn3c(=O)n(-c4cc(F)cc(F)c4)c4ccccc43)cc1C2,0.029,3.1,6.5,1.4,24,0.18,–
CN1C(=O)NC(=O)C12Cc1ccc(NC(=O)Cn3c(=O)oc4ccccc43)cc1C2 (centres undefined),0.103,–,–,–,–,1.4,–
O=C(Cn1c(=O)n(-c2ccccc2)c2ccccc21)Nc1ccc2c(c1)CC1(C2)NC(=O)NC1=O (centres undefined),0.087,–,–,–,–,0.43,–
CN1C(=O)NC(=O)[C@]12Cc1ccc(NC(=O)Cn3c(=O)n(-c4ncccn4)c4ccccc43)cc1C2,0.025,23,1.1,0.5,2,0.11,–
CN1C(=O)NC(=O)[C@]12Cc1ccc(NC(=O)Cn3c(=O)n(-c4cncnc4)c4ccccc43)cc1C2,0.0095,46,0.5,0.95,0,0.05,solubility [11]: > 100 µg/mL
CN1C(=O)NC(=O)[C@]12Cc1ccc(NC(=O)Cn3c(=O)n(-c4nccc(C(F)(F)F)n4)c4ccccc43)cc1C2,0.01,7.5,2.8,1.8,0,0.05,–
CN1C(=O)NC(=O)[C@]12Cc1ccc(NC(=O)Cn3c(=O)n(-c4cnsc4)c4ccccc43)cc1C2,0.0068,60,1,2,1,0.039,–
O=C(Cn1c(=O)oc2ccccc21)Nc1ccc2c(c1)CCC1(C2)NC(=O)NC1=O (centres undefined),0.607,–,–,–,–,3.3,–
Cn1c(=O)n(CC(=O)Nc2ccc3c(c2)CC2(C3)NC(=O)NC2=O)c2ccccc21 (centres undefined),0.078,–,–,–,–,0.53,–
COc1cccc(-n2c(=O)n(CC(=O)Nc3ccc4c(c3)C[C@]3(C4)C(=O)NC(=O)N3C)c3ccccc32)n1,0.015,11,1.2,0.84,13,0.054,–
CN1C(=O)NC(=O)[C@]12Cc1ccc(NC(=O)Cn3c(=O)n(-c4nccs4)c4ccccc43)cc1C2,0.0087,3.7,2,0.54,20,0.024,solubility [11]: < 1 µg/mL
CN1C(=O)NC(=O)[C@]12Cc1ccc(NC(=O)Cn3c(=O)n(C4CCOC4)c4ccccc43)cc1C2 (some centres undefined),0.02,9,0.9,0.43,5,0.061,–
CN1C(=O)NC(=O)[C@@]12Cc1ccc(NC(=O)Cn3c(=O)oc4ccccc43)cc1C2,1.05,–,–,–,–,–,–
O=C(Cn1c(=O)oc2ccccc21)Nc1ccc2c(c1)CC1(C2)NC(=O)NC1=O (centres undefined),0.309,–,–,–,–,2.9,–
